# Experimental data from US6432883B1, “Methods of treating plants with glycolic acid” (Emerald BioAgriculture Corporation, priority 2000, dated 2002).
# Marks after values point to notes of the source that are not given here.
# What was measured:
# Assay type in all cases: in vivo
# Sclerotinia minor = experiment: Lettuce pathogen stress: spray treatment, then stem inoculation, disease severity rating; settings: for Disease Severity Rating: lettuce, 1-9 rating scale
# Procedure: Waldmann's MTO dark green Grand Rapids leaf lettuce seed, lot#15529, was purchased from Johnny's Selected Seeds, Albion, Me., and grown 8 plants per 1 gallon pot, 1 pot per experimental unit and 3 experimental units per each of 4 replications. The plants were spray-treated first following “row closure” and again 14 days later with 8 ml per pot. The pathogen stress (Sclerotinia minor hyphal fragments and sclerotia, cultured on potato dextrose agar) was applied to the plant stems at the soil/stem interface at 14 days following the second treatment application.
# Treatments consisted of non-inoculated and inoculated groups of non-treated (NTC), water and 0.05% surfactant-blank (SB) controls and 15 and 60 ppm of glycolic acid.
# Disease assessment was made just prior to harvest by means of a 1-9 based rating scale. Extensive decomposition of the controls made accurate yield fresh and dry weights impossible. The results in Table 1 below show the data for each treatment and the rating scale definitions.
# Bottytis cinerea = experiment: Excised lettuce leaves, post-harvest pathogen stress: radius of colonized tissue; settings: for Average Disease Progression: radius of colonized tissue 3 days post-inoculation
# Procedure: Waldmann's MTO dark green Grand Rapids leaf lettuce seed, lot# 15529, was purchased from Johnny's Selected Seeds, Albion, Me., and grown 8 plants per 1 gallon pot. Circular steel-blue blotter papers (Anchor Paper Co, St. Paul, Minn.) were steam autoclaved and fitted into disposable petri dishes. […]
# Blotters were saturated with 4.5 ml sterile tap water. Individual leaves (20) were excised and placed into a treatment solution for 5-10 seconds or left non-treated. Excess fluid was removed from the leaf surface. These leaves were then placed singly, 1 leaf per dish and adaxial side up, on the moist blotters. Dish lids were replaced and dishes stacked, bagged and returned to the petri dish box for 24 hour dark storage at room temperature (65-68° F.).
# Inoculum (Bottytis cinerea) was grown on potato dextrose agar (PDA) plates until dense conidia production was present. These were blended into a paste with non-inoculated PDA and sterile tap water. Inoculum concentration was determined by dilution plating to be 1960 cfu/ml.
# A small spot of inoculum paste was dotted onto the center of 16 of the 20 leaf pieces per treatment stack 24 hours after test substance application.
# Disease progression assessment was made at 3 days±2 hours post-inoculation by measuring the radius of colonized tissue in mm.
# [1] = tested on: Erysiphe graminis/Ooidium; experiment: Wheat pathogen stress: disease index on leaves and heads; settings: for Disease Index Heads / Disease Index Leaves: wheat, (1-7 severity rating)(% incidence)/100
# Procedure: Kulm wheat seed, lot CR, was purchased from Albert Lea Seed House, Albert Lea, Minn. and grown 100 plants per 1 gallon pot, 3 pots per experimental unit and 1 experimental unit per each of 6 replications. The plants were spray-treated first at late-tillering to jointing and again at “in boot” to anthesis with 8 ml solution per pot. Aerial application of the pathogen stress (Erysiphe graminis/Ooidium conidia cultured on other Kulm wheat plants infected by incoming natural inoculum) was made to the plants at 14 days following the first treatment application, in addition to other naturally occurring inoculum.
# Treatments consisted of non-inoculated and inoculated groups of non-treated (NTC), water and 0.05% surfactant-blank (SB) controls and 5, 25, and 50 ppm of glycolic acid.
# Disease assessment was made 3 days prior to head harvesting using a 1-7 based severity scale and % incidence. A disease index [(1-7 based severity rating)(% incidence)/100] was created to better describe the compound effect. The results in Table 3 below show the data for each treatment and the rating scale definitions.
# cabbage = experiment: Cabbage cold shock and heat treatment: fresh and dry weights; design: Avg. Fresh Weights ± SD / Avg. Dry Weights ± SD: unit not given here
# Description: Seeds of Heads Up cabbage were obtained from Harris Seeds, Rochester, N.Y. and grown in 7″×5¼″×2¼″ (17.78 cm×13.34×5.72 cm) Kord inserts (Park Seeds, Greenwood, S.C.) containing Bacto potting soil (Michigan Peat Company, Houston, Tex.). After plants had germinated, cabbage seedlings were thinned to six plants per insert. Inserts were kept in 12″×8¾″ (30.48 cm×22.23 cm) perma nest trays (Park Seed) with two inserts per tray. Each treatment consisted of three replicate trays containing a total of eighteen cabbage plants. After 12 days, some of the plant were sprayed with Glypure® at 25 ppm, 100 ppm, and 200 ppm. Treated plants were given a second application of Glypure® 7 days later. Untreated and treated plants were subjected to freeze and heat shock treatments 24 hours later. Cold shock was administered by exposing plants to −3° C. for 2 hours and 20 minutes. Heat treatment was provided by placing plants in an oven for 5 hours at 46.5° C. One week following the temperature treatments, the plants were harvested and the fresh and dry weights were determined.
# [2] = Cold Stress (−3° C., 2 hours 20 minutes), 25 ppm
# [3] = Cold Stress (−3° C., 2 hours 20 minutes), 200 ppm
# [4] = Heat Stress (46.5° C., 5 hours), 25 ppm
# [5] = Heat Stress (46.5° C., 5 hours), 200 ppm
smiles,measurement,setting,value
O=C(O)CO [glycolic acid],Disease Severity Rating,Sclerotinia minor; 15 ppm spray,3.0*
same,Disease Severity Rating,Sclerotinia minor; 60 ppm spray,3.5*
same,disease severity versus control lettuce,"Sclerotinia minor; all glycolic acid treatments (15 and 60 ppm), α=0.05",statistically significant (α=0.05) decrease
same,Average Disease Progression,Bottytis cinerea; 10 ppm leaf dip,4.0* mm
same,disease severity versus control lettuce,"Bottytis cinerea; 10 ppm, lettuce leaves, α=0.05",statistically significant (α=0.05) decrease
same,Average Disease Progression,Bottytis cinerea; 25 ppm leaf dip,9.8 mm
same,Average Disease Progression,Bottytis cinerea; 75 ppm leaf dip,9.4 mm
same,Average Disease Progression,Bottytis cinerea; 150 ppm leaf dip,13.6 mm
same,Average Disease Progression,Bottytis cinerea; 500 ppm leaf dip,12.1 mm
same,Average Disease Progression,Bottytis cinerea; 1000 ppm leaf dip,11.6 mm
same,disease severity observed in wheat heads versus control wheat,"[1]; 5 ppm and 25 ppm, α=0.05",statistically significant (α=0.05) decrease
same,Disease Index Heads,[1]; 5 ppm spray,2.5*
same,Disease Index Leaves,[1]; 5 ppm spray,7.6*
same,Disease Index Heads,[1]; 25 ppm spray,13.4*
same,Disease Index Leaves,[1]; 25 ppm spray,7.0*
same,Disease Index Heads,[1]; 50 ppm spray,18.6*
same,Disease Index Leaves,[1]; 50 ppm spray,36.9
same,disease severity in wheat leaves versus control wheat,"[1]; all glycolic acid treated wheat, α=0.05",statistically significant (α=0.05) decrease
same,"reduction in fresh and dry weights caused by the adverse temperatures, versus untreated plants",cabbage; 200 ppm,statistically significantly lower
same,Avg. Dry Weights ± SD,cabbage; [2],3.1 ± 0.1
same,Avg. Fresh Weights ± SD,cabbage; [2],28.6 ± 2.7
same,Avg. Dry Weights ± SD,cabbage; [3],3.2 ± 0.2
same,Avg. Fresh Weights ± SD,cabbage; [3],31.4 ± 1.3
same,Avg. Dry Weights ± SD,cabbage; [4],2.5 ± 0.3
same,Avg. Fresh Weights ± SD,cabbage; [4],10.2 ± 2.6
same,Avg. Dry Weights ± SD,cabbage; [5],3.5 ± 0.1
same,Avg. Fresh Weights ± SD,cabbage; [5],15.2 ± 0.6
